From patent US11873317B2, “Galectin-3 inhibiting c-glycosides” (GLYCOMIMETICS, INC., priority 2018, dated 2024) come the findings set out here.

SMILES strings stand for the structures.

The test deals with T1, galectin-3 (Homo sapiens, UniProt P17931).
T1 construct: purchased IBL IBATGP0414
T1 sequence (P17931 whole entry): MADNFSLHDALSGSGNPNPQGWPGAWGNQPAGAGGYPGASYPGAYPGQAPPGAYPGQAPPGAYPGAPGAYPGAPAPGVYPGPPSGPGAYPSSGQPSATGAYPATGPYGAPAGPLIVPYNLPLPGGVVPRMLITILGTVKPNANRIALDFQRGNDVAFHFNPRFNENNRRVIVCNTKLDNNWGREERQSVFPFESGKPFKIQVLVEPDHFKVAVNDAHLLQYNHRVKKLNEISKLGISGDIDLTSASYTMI
Nature of the test: Galectin-3 Activity ELISA assay: inhibition of binding of galectin-3 to a Galβ1-3GlcNAc carbohydrate structure. The settings on record: galectin-3 binding to immobilized Galβ1-3GlcNAc polymer, A450 readout, read-out: IC50 Galectin-3 Antagonist Activity. The method, then: Galectin-3 antagonists were evaluated for their ability to inhibit binding of galectin-3 to a Galβ1-3GlcNAc carbohydrate structure. The detailed protocol was as follows. A 1 ug/mL suspension of a Galβ1-3GlcNAcβ1-3Galβ1-4GcNAcβ-PAA-biotin polymer (Glycotech, catalog number 01-096) was prepared. A 100 uL aliquot of the polymer was added to the wells of a 96-well streptavidin-coated plate (R&D Systems, catalog number CP004). A 100 uL aliquot of IX Tris Buffered Saline (TBS, Sigma, catalog number T5912-10×) was added to control wells. The polymer was allowed to bind to the streptavidin-coated wells for 1.5 hours at room temperature. The contents of the wells were discarded and 200 uL of 1×TBS containing 1% bovine serum albumin (BSA) was added to each well as a blocking reagent and the plate was kept at room temperature for 30 minutes. The wells were washed three times with IX TBS containing 0.1% BSA. A serial dilution of test compounds was prepared in a separate V-bottom plate (Corning, catalog number 3897). A 75 uL aliquot of the highest concentration of the compound to be tested was added to the first well in a column of the V-bottom plate then 15 ul were serially transferred into 60 uL IX TBS through the remaining wells in the column to generate a 1 to 5 serial dilution. A 60 uL aliquot of 2 ug/mL galectin-3 (IBL, catalog number IBATGP0414) was added to each well in the V-bottom plate. A 100 uL aliquot of the galectin-3/test compound mixture was transferred from the V-bottom plate into the assay plate containing the Galβ1-3GlcNAc polymer. Four sets of control wells in the assay plate were prepared in duplicate containing 1) both Galβ1-3GlcNAc polymer and galectin-3, 2) neither the polymer nor galectin-3, 3) galectin-3 only, no polymer, or 4) polymer only, no galectin-3. The plate was gently rocked for 1.5 hours at room temperature. The wells were washed four times with TBS/0.1% BSA. A 100 uL aliquot of anti-galectin-3 antibody conjugated to horse radish peroxidase (R&D Systems, from DGAL30 kit) was added to each well and the plate was kept at room temperature for 1 hour. The wells were washed four times with TBS/0.1% BSA. A 100 uL aliquot of TMB substrate solution was added to each well. The TMB substrate solution was prepared by making a 1:1 mixture of TMB Peroxidase Substrate (KPL, catalog number 5120-0048) and Peroxidase Substrate Solution B (KPL, catalog number 5120-0037). The plate was kept at room temperature for 10 to 20 minutes. The color development was stopped by adding 100 uL 10% phosphoric acid (RICCA Chemical Co., catalog number 5850-16). The absorbance at 450 nm (A450) was measured using a FlexStation 3 plate reader (Molecular Devices). Plots of A450 versus test compound concentration and IC50 determinations were made using GraphPad Prism 6.
Turning to `CNC(=O)[C@@H](OCc1ccc(F)cc1)[C@@H]1OC(CO)[C@H](O)C(n2cc(-c3cc(F)c(F)c(F)c3)nn2)C1O` (stereo partly shown) [Compound 24], the IC50 is 1720 nM.

Consider `CNC(=O)[C@@H](OCc1ccc(OC)cc1)[C@@H]1OC(CO)[C@H](O)C(n2cc(-c3cc(F)c(F)c(F)c3)nn2)C1O` (stereo partly shown) [Compound 32], for which the half-maximal inhibitory concentration (IC50) amounted to 2810 nM. To `CNC(=O)[C@@H](OCc1ccc(Cl)cc1)[C@@H]1OC(CO)[C@H](O)C(n2cc(-c3cc(F)c(F)c(F)c3)nn2)C1O` (stereo partly shown) [Compound 19] belongs 320 nM.

Turning to `CNC(=O)[C@@H](OCc1ccc(F)c(F)c1)[C@@H]1OC(CO)[C@H](O)C(n2cc(-c3cc(F)c(F)c(F)c3)nn2)C1O` (stereo partly shown) [Compound 25], the IC50 was found to be 1080 nM. The result for `CNC(=O)[C@@H](OCc1ccccc1)[C@@H]1OC(CO)[C@H](O)C(n2cc(-c3cc(F)c(F)c(F)c3)nn2)C1O` (stereo partly shown) [Compound 36] reads 3860 nM. In the case of `CNC(=O)[C@@H](OCc1ccc(F)c(Cl)c1)[C@@H]1OC(CO)[C@H](O)C(n2cc(-c3cc(F)c(F)c(F)c3)nn2)C1O` (stereo partly shown) [Compound 27], the IC50 stood at 2090 nM. The result for `CNC(=O)[C@@H](OCc1cccc(-c2ccccc2)c1)[C@@H]1OC(CO)[C@H](O)C(n2cc(-c3cc(F)c(F)c(F)c3)nn2)C1O` (stereo partly shown) [Compound 17] reads 2560 nM; that for `CNC(=O)[C@@H](OCc1ccc(S(C)(=O)=O)cc1)[C@@H]1OC(CO)[C@H](O)C(n2cc(-c3cc(F)c(F)c(F)c3)nn2)C1O` (stereo partly shown) [Compound 28], 690 nM. The result for `CNC(=O)[C@@H](OCc1ccccc1)[C@@H]1OC(CO)[C@H](O)[C@H](n2cc(-c3cc(F)c(F)c(F)c3)nn2)C1OC` (stereo partly shown) [Compound 40] reads 2610 nM; that for `COC1C(n2cc(-c3cc(F)c(F)c(F)c3)nn2)[C@@H](O)C(CO)O[C@H]1[C@H](OCc1ccc(Cl)cc1)C(=O)N(C)C` (stereo partly shown) [Compound 42], 2060 nM. Regarding `CNC(=O)[C@@H](OCc1cccc(OC(F)(F)F)c1)[C@@H]1OC(CO)[C@H](O)C(n2cc(-c3cc(F)c(F)c(F)c3)nn2)C1O` (stereo partly shown) [Compound 21], the IC50 is 1940 nM.

Turning to `CNC(=O)[C@@H](OCc1cccnc1)[C@@H]1OC(CO)[C@H](O)C(n2cc(-c3cc(F)c(F)c(F)c3)nn2)C1O` (stereo partly shown) [Compound 34], the IC50 came out at 850 nM. The result for `CNC(=O)[C@@H](OCc1ccc(C(F)(F)F)cc1)[C@@H]1OC(CO)[C@H](O)C(n2cc(-c3cc(F)c(F)c(F)c3)nn2)C1O` (stereo partly shown) [Compound 26] reads 350 nM; that for `CNC(=O)[C@@H](OCc1ccc(C(=O)OC)cc1)[C@@H]1OC(CO)[C@H](O)C(n2cc(-c3cc(F)c(F)c(F)c3)nn2)C1O` (stereo partly shown) [Compound 29], 4600 nM; that for `COC1C(n2cc(-c3cc(F)c(F)c(F)c3)nn2)[C@@H](O)C(CO)O[C@H]1[C@H](OCc1ccc(Cl)cc1)C(=O)Nc1ccccc1F` (stereo partly shown) [Compound 69], 230 nM. To `CNC(=O)[C@@H](OCc1ccc(C2CC2)cc1)[C@@H]1OC(CO)[C@H](O)C(n2cc(-c3cc(F)c(F)c(F)c3)nn2)C1O` (stereo partly shown) [Compound 33] belongs 1640 nM. For `CNC(=O)[C@@H](OCc1ccc(Cl)c(F)c1)[C@@H]1OC(CO)[C@H](O)C(n2cc(-c3cc(F)c(F)c(F)c3)nn2)C1O` (stereo partly shown) [Compound 31], the IC50 stood at 180 nM.

Turning to `CNC(=O)[C@@H](OCc1ccc2ccccc2c1)[C@@H]1OC(CO)[C@H](O)C(n2cc(-c3cc(F)c(F)c(F)c3)nn2)C1O` (stereo partly shown) [Compound 16], the IC50 was determined as 530 nM.

`CNC(=O)[C@@H](OCc1cccc(C(=O)OC)c1)[C@@H]1OC(CO)[C@H](O)C(n2cc(-c3cc(F)c(F)c(F)c3)nn2)C1O` (stereo partly shown) [Compound 18]: the half-maximal inhibitory concentration (IC50) worked out at 670 nM. The result for `COC1C(n2cc(-c3cc(F)c(F)c(F)c3)nn2)[C@@H](O)C(CO)O[C@H]1[C@H](OCc1ccc(Cl)cc1)C(=O)NCC(F)(F)F` (stereo partly shown) [Compound 70] reads 720 nM.

For `CNC(=O)[C@@H](OCc1cccc(Cl)c1)[C@@H]1OC(CO)[C@H](O)C(n2cc(-c3cc(F)c(F)c(F)c3)nn2)C1O` (stereo partly shown) [Compound 20], the IC50 amounted to 1520 nM.

As to `COC(=O)[C@@H](OCc1ccccc1)[C@@H]1OC(CO)[C@H](O)C(n2cc(-c3cc(F)c(F)c(F)c3)nn2)C1O` (stereo partly shown) [Compound 13], the IC50 was 3480 nM. To `CNC(=O)[C@@H](OCc1ccc(OC(F)(F)F)cc1)[C@@H]1OC(CO)[C@H](O)C(n2cc(-c3cc(F)c(F)c(F)c3)nn2)C1O` (stereo partly shown) [Compound 30] belongs 4980 nM. The result for `CCCCNC(=O)[C@@H](OCc1ccccc1)[C@@H]1OC(CO)[C@H](O)C(n2cc(-c3cc(F)c(F)c(F)c3)nn2)C1O` (stereo partly shown) [Compound 35] reads greater than 100000 nM; that for `COC1[C@H]([C@H](OCc2ccccc2)C(=O)N(C)C)OC(CO)[C@H](O)[C@@H]1n1cc(-c2cc(F)c(F)c(F)c2)nn1` (stereo partly shown) [Compound 41], 9580 nM.
